pIC50: −log10 of the molar value. “Also recorded” adds a separate entry of the source. Read-outs that look alike come from different tables or passages of the source.
Tests used:
[1] = tested on: AMPK in C-26 colon adenocarcinoma cells; experiment: Western blot of AMPK phosphorylation in C-26 cells; format: cell-based; details: dose- and time-dependent, 10% FBS-containing medium
Description: (§1) Cells and cell culture. THP-1 monocytic cells were purchased from the American Type Culture Collection (Rockville, Md.), and maintained with L-glutamine-containing RPMI 1640 supplemented with 10% fetal bovine serum (FBS), 0.25% glucose, 0.01% sodium pyruvate, 50 μM 2-mercaptoethanol, and 0.1 ml/ml penicillin/streptomycin/L-glutamine. Differentiation of THP-1 monocytes into macrophages was carried out by exposure to PMA (50 nM) in the aforementioned RPMI 1640 medium for 24 h. Colon-26 (C-26) adenocarcinoma cells were provided by a researcher at The Ohio State University. The C-26 cells were maintained in RPMI 1640 medium supplemented with 5% FBS and 1% penicillin/streptomycin.
Western blotting. THP-1 cells were lysed in SDS-sample buffer after washing with iced-PBS buffer, and then heated at 95° C. for 20 minutes. Protein extracts were prepared using M-PER mammalian protein extraction reagent (Pierce, Rockford, Ill.), containing freshly added 1% phosphatase and protease inhibitor cocktails (Calbiochem). After centrifugation of lysates at 13000 g for 10 min, supernatants were collected, and the protein concentration in each sample was determined by protein assay (Bio-Rad). Protein extracts were then suspended in 2×SDS sample buffer, separated by electrophoresis in 10% SDS-polyacrylamide gels, and transferred to nitrocellulose membranes using a semidry transfer cell. […]

[2] = tested on: LPS-stimulated IL-6 production in THP-1 macrophages; experiment: ELISA of LPS-stimulated IL-6 production in THP-1 macrophages; format: cell-based, human; details: for first-tier screening result (AMPK/mTOR activation status and IL-6/IL-6 receptor signaling): LPS-stimulated THP-1 macrophages; for inhibition at 10 µM: read-out: inhibition of IL-6 production
Description: as §1
ELISA. IL-6 release by differentiated THP-1 macrophages in response to 10 ng/ml of LPS was analyzed by using the IL-6 ELISA kit (Cayman Chemical Co.; Ann Arbor, Mich.) according to the manufacturer's instruction in triplicate. The effect of each test compound on LPS-stimulated IL-6 release is presented as percent inhibition and was calculated using the following formula: percentage inhibition=100%×{1−[(O.D. of sample−O.D. of control)/(O.D. of LPS−O.D. of control)]}.

AMPK = experiment: Western blot of AMPK phosphorylation in LPS-treated THP-1 macrophages; format: cell-based, human
Description: Western blotting. THP-1 cells were lysed in SDS-sample buffer after washing with iced-PBS buffer, and then heated at 95° C. for 20 minutes. Protein extracts were prepared using M-PER mammalian protein extraction reagent (Pierce, Rockford, Ill.), containing freshly added 1% phosphatase and protease inhibitor cocktails (Calbiochem). After centrifugation of lysates at 13000 g for 10 min, supernatants were collected, and the protein concentration in each sample was determined by protein assay (Bio-Rad). Protein extracts were then suspended in 2×SDS sample buffer, separated by electrophoresis in 10% SDS-polyacrylamide gels, and transferred to nitrocellulose membranes using a semidry transfer cell. The transblotted membrane was washed twice with Tris-buffered saline containing 0.1% Tween-20 (TBST). After blocking with TBST containing 5% nonfat milk for 1 h, the membrane was incubated with primary antibodies: p172Thr-AMPK, AMPK, p705Tyr-STAT3 and STAT3 (Cell Signaling Technology; Beverly, Mass.); p389Thr-p70S6K and p70S6K (Santa Cruz Biotechnology; Santa Cruz, Calif.), each at 1:1,000 dilution in 1% TBST-nonfat milk at 4° C. overnight. After incubation with the primary antibody, the membrane was washed three times with TBST for a total of 30 min, followed by incubation with horseradish peroxidase-conjugated goat anti-mouse IgG (diluted 1:2500) for 1 h at room temperature. […]

[3] = tested on: MCF-7 breast cancer cells; experiment: MTT cell viability assay, MCF-7 cells; format: cell-based; details: Homo sapiens, MCF7, 72 h, 10% FBS-supplemented medium, read-out: IC50 in inhibiting the viability of MCF-7 breast cancer cells
Description: (§3) Cell viability was determined using the 3-(4,5-dimethylthiazol-2-yl)-2,5-diphenyltetrazolium bromide) (MTT) assay. LNCaP and MCF-7 cells were seeded in 96-well plates (5000 cells/well) and incubated in their respective culture media supplemented with 10% FBS for 24 h. […] Drug-containing medium was then replaced with 1×MTT (0.5 mg/mL in RPMI 1640), followed by incubation at 37° C. for 2 h. After removal of medium, the reduced MTT dye was solubilized in 200 μL/well DMSO, and absorbances were measured at 570 nm.

[4] = tested on: Sirt1 gene expression in LNCaP cells; experiment: Time course of Sirt1 expression in LNCaP cells (Western blot/RT-PCR); format: cell-based; details: OSU-CG12 10 μM, 2-DG 10 mM
Description: Total RNA was isolated from drug-treated LNCaP cells using the RNeasy mini kit (Qiagen, Valencia, Calif.), and then reverse-transcribed to cDNA using the Omniscript RT Kit (Qiagen) according to manufacturer's instructions. PCR products were separated electrophoretically in 1% agarose gels and visualized by ethidium bromide staining.
(§2) Transfections were performed by electroporation using Nucleofector kit R of the Amaxa Nucleofector system (Amaxa Biosystems, Cologne, Germany). LNCaP cells were transfected with the following plasmids or siRNA: WT- and H363Y-Flag-Sirt1 (DN-Sirt1), WT- and K45R-Myc-AMPK (DN-AMPK), GFP-LC3, TSC2 shRNA, and DDIT3 siRNA (GADD153). […] For the fluorescent microscopic analysis, LNCaP cells transfected with the GFP-LC3 expression plasmid or with scrambled or TSC2 shRNA were treated as indicated for 36 h. After cells were fixed with 3.7% formaldehyde at room temperature for 20 min, nuclear counterstaining was performed using a 4,6-diamidino-2-phenylindole (DAPI)-containing mounting medium (Vector Laborotaries, Burlingame, Calif.) before examination. Images were observed using a Nikon microscope (Eclipse TE300).

[5] = tested on: human tumor cell lines of the cancer screening panel; experiment: NCI60 cell line screening; format: cell-based; details: 48 h, SRB; variety of cancer cell types
Description: The NCI60 screening method was carried out using the following methodology. The human tumor cell lines of the cancer screening panel were grown in RPMI 1640 medium containing 5% fetal bovine serum and 2 mM L-glutamine. The cells were then inoculated into 96 well microtiter plates in 100 μL at plating densities ranging from 5,000 to 40,000 cells/well depending on the doubling time of individual cell lines. After cell inoculation, the microtiter plates are incubated at 37° C., 5% CO2, 95% air and 100% relative humidity for 24 h prior to addition of the thiazolidinedione derivatives. […]
Following drug addition, the plates were incubated for an additional 48 h at 37° C., 5% CO2, 95% air, and 100% relative humidity. […] Bound stain is subsequently solubilized with 10 mM trizma base, and the absorbance was read on an automated plate reader at a wavelength of 515 nm. […] Using the seven absorbance measurements [time zero, (Tz), control growth, (C), and test growth in the presence of drug at the five concentration levels (Ti)], the percentage growth is calculated at each of the drug concentrations levels. Percentage growth inhibition is calculated as: [(Ti−Tz)/(C−Tz)]×100 for concentrations for which Ti>/=Tz [(Ti−Tz)/Tz]×100 for concentrations for which Ti<Tz.
Three dose response parameters were calculated for each experimental agent. […]

[6] = tested on: β-TrCP, Sp1, and androgen receptor (AR) expression in PrECs; experiment: Western blot of β-TrCP, Sp1 and AR in PrECs; format: cell-based; details: escalating concentrations, 48 h
tumor xenograft = experiment: Tumor xenograft growth and acute toxicity; details: in vivo
[7] = tested on: [3H]-2-DG uptake into LNCaP cells; experiment: Glucose uptake assay ([3H]-2-DG); format: cell-based; details: OSU-CG12 at 5 and 10 μM, resveratrol at 50 and 100 μM, P<0.05
Description: After washing cells with PBS, glucose uptake was initiated by addition of 1 mL of PBS containing 1 μCi/mL [^3H]-2-DG (Perkin Elmer, Waltham, Mass.) and […] nonradioactive 2-DG. After 5 min, glucose uptake was terminated by extensive washing with PBS, and cells were solubilized in 0.1% SDS buffer. Aliquots were taken for measurements of radioactivity using a scintillation counter LS6500 (Beckman).

[8] = tested on: LNCaP prostate cancer cells; experiment: MTT cell viability assay, LNCaP cells; format: cell-based; details: Homo sapiens
Description: The compounds were tested for their ability to decrease LNCaP prostate cancer cell viability as measured by the 3-(4,5-dimethylthiazol-2-yl)-2,5-diphenyltetrazolium bromide) (MTT) assay.
as §3

[9] = tested on: conversion of LC3-I to LC3-II in LNCaP cells; experiment: GFP-LC3 conversion (autophagy) in LNCaP cells; format: cell-based; details: 5 μM, GFP-LC3-transfected LNCaP cells
Description: as §2

THP-1 cells = experiment: MTT viability of THP-1 cells; format: cell-based, human; details: at the concentrations used for IL-6 ELISA (dose range b224, 10 μM b226, 1 μM b229)

| SMILES | p-AMPK level in C-26 colon adenocarcinoma cells [1] | potency in blocking IL-6 release ([2]; 1 μM, 6 h, LPS-stimulated THP-1) | first-tier screening result (AMPK/mTOR activation status and IL-6/IL-6 receptor signaling) ([2]; 10 μM) | pIC50 ([2]; Homo sapiens, THP-1, 6 h, 10% FBS-containing medium, read-out: IC50 for inhibition of LPS-stimulated IL-6 production) | inhibition at 10 µM ([2]; Homo sapiens, 10 μM, 6 h, LPS-stimulated THP-1) | potency in activating AMPK relative to AICAR (AMPK; LPS-treated THP-1, 6 h, AICAR 0.5 mM) | pIC50 [3] | duration of transient transcriptional activation of Sirt1 gene expression [4] | antitumor potency in NCI 60 cell line screening [5] | expression levels of β-TrCP, Sp1, and AR in PrECs [6] | acute toxicity (tumor xenograft) | suppression of tumor xenograft growth (tumor xenograft) | inhibition at 10 µM ([2]; Homo sapiens, THP-1, 6 h) | inhibition of glucose uptake [7] | pIC50 ([8]; LNCaP, MTT, 72 h, 10% FBS-supplemented medium, read-out: IC50 in inhibiting the viability of LNCaP prostate cancer cells) | pIC50 ([8]; summary over LNCaP and MCF-7 cells, read-out: IC50 in suppressing cancer cell growth) | accumulation of LC3-II (autophagy marker) [9] | effect on viability of THP-1 cells (THP-1 cells) | effect on LPS-stimulated IL-6 production ([2]; 10 μM, 6 h, LPS-stimulated THP-1) | AMPK activation (p-AMPK level) (AMPK; 10 μM, 6 h, LPS-treated THP-1) |
| --- | --- | --- | --- | --- | --- | --- | --- | --- | --- | --- | --- | --- | --- | --- | --- | --- | --- | --- | --- | --- |
| CC1(CN2C(=O)S/C(=C\c3ccc(NS(=O)(=O)c4ccc([N+](=O)[O-])c(C(F)(F)F)c4)cc3)C2=O)CCCCC1 [Compound 53, N-{4-[3-(1-Methyl-cyclohexylmethyl)-2,4-dioxo-thiazolidin-5-ylidene-methyl]-phenyl}-4-nitro-3-trifluoromethyl-benzenesulfonamide] | robust increases in the p-AMPK level | optimal agent; also recorded: highest potency | active | ~6.00 | > 80% | two-orders-of-magnitude higher |  |  |  |  |  |  |  |  |  |  |  |  |  |  |
| CC1(CN2C(=O)S/C(=C\c3ccc(O)c(C(F)(F)F)c3)C2=O)CCCCC1 [OSU-CG12, (Z)-5-(4-Hydroxy-3-trifluoromethyl-benzylidene)-3-(1-methyl-cyclohexylmethy)-thiazolidine-2-4-dione] |  |  | active |  |  |  | 5.30 | 1 h | significantly antitumor potency | unaltered expression levels | without incurring acute toxicity | effectiveness in suppressing tumor xenograft growth | > 80% | significantly inhibit glucose uptake | 5.24 | 5.30 | time-dependent accumulation of LC3-II |  |  |  |
| CC1(COc2ccc(C=C3SC(=O)NC3=O)cc2)CCCCC1 [compound 62] |  |  |  |  |  |  |  |  |  |  |  |  |  |  |  |  |  | neither agent inhibited the viability of THP-1 cells | modest activities | effective in elevating the level of p-AMPK; also recorded: modest activities |
